Measured values published in paper PMC4434416, “Purification and biochemical characterization of a newly produced yellow laccase from Lentinus squarrosulus MR13” (3 Biotech, 2014).

Tested on: yellow laccase
Conditions: 35 °C; pH of the kinetic assay not stated; printed ABTS range 40–600 mM

Km: 71.4 µM
Compound: CCn1c(=NN=c2sc3cc(S(=O)(=O)O)ccc3n2CC)sc2cc(S(=O)(=O)O)ccc21 [ABTS, 2,2′-Azinobis-(3-ethylbenzothiazoline-6-sulfonic acid)]
